Data: patent US20080200454A1, “CARBON-LINKED TETRAHYDRO-PYRAZOLO-PYRIDINE MODULATORS OF CATHEPSIN S” (priority 2007, published 2008)
Like-named read-outs stand apart in the source and are kept apart here.

Target: Recombinant human cathepsin S (CatS) (Homo sapiens, UniProt P25774)
Test: Recombinant human cathepsin S (CatS) inhibition assay, fluorogenic substrate Z-Valine-Valine-Arginine-AMC;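 also: Baculovirus-expressed CatS in pH 5.0 sodium acetate buffer with DTT and NaCl, fluorescence read each minute over 20 min, inhibition derived from rate slope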
Method: Recombinant human cathepsin S (CatS) was expressed in the baculovirus system and purified in one step with a thiopropyl-sepharose column. 10-L yielded ˜700 mg of CatS and N-terminal sequencing confirmed identity. The assay is run in 150 mM sodium acetate pH 5.0 containing 1.5 mM DTT and 150 mM NaCl. […] Using 2 ng/well of CatS, the production of product is linear and yields-7-fold signal after 20 min with only 20% loss of substrate. Measurements are taken every min for 20 min. The rate is calculated from the slope of the increase in fluorescence and the percent inhibition is calculated from this.

Chain of Recombinant human cathepsin S (CatS) (P25774 115-331): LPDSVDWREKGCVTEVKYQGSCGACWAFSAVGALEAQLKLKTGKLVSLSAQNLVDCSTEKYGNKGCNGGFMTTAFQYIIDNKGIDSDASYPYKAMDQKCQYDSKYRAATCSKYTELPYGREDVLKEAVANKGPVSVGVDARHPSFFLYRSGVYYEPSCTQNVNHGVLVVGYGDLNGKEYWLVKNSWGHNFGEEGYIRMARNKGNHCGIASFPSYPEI

| Compound | IC50 [nM] | IC50 (CatS IC50) [nM] |
| --- | --- | --- |
| CS(=O)(=O)N1CCc2c(c(-c3ccc(Cl)c(C#Cc4ccc(CNCc5ccc(Cl)cc5)cc4)c3)nn2C[C@H](O)CN2CCOCC2)C1 [Example 264, (R)-1-[3-(4-Chloro-3-{4-[(4-chloro-benzylamino)-methyl]-phenylethynyl}-phenyl)-5-methanesulfonyl-4,5,6,7-tetrahydro-pyrazolo[4,3-c]pyridin-1-yl]-3-morpholin-4-yl-propan-2-ol] | 370 |  |
| C[C@H]1COCCN1C[C@H](O)Cn1nc(-c2ccc(Cl)c(C#Cc3ccc(CNCc4ccc(Cl)cc4)cc3)c2)c2c1CCN(S(C)(=O)=O)C2 [Example 265, (2S)-1-[3-(4-Chloro-3-{4-[(4-chloro-benzylamino)-methyl]-phenylethynyl}-phenyl)-5-methanesulfonyl-4,5,6,7-tetrahydro-pyrazolo[4,3-c]pyridin-1-yl]-3-((3S)-3-methyl-morpholin-4-yl)-propan-2-ol] | 140 |  |
| C[C@H]1COCCN1CCCn1nc(-c2ccc(Cl)c(C#Cc3ccc(Cl)c(CNC[C@@H]4CCCO4)c3)c2)c2c1CCN(C(=O)C(N)=O)C2 [Example 267, 2-{3-[4-Chloro-3-(4-chloro-3-{[((2S)-tetrahydro-furan-2-ylmethyl)-amino]-methyl}-phenylethynyl)-phenyl]-1-[3-((3S)-3-methyl-morpholin-4-yl)-propyl]-1,4,6,7-tetrahydro-pyrazolo[4,3-c]pyridin-5-yl}-2-oxo-acetamide] | 10 |  |
| C[C@H]1COCCN1CCCn1nc(-c2ccc(Cl)c(C#Cc3ccc(Cl)c(CNC[C@H]4CCCO4)c3)c2)c2c1CCN(C(=O)C(N)=O)C2 [Example 268, 2-{3-[4-Chloro-3-(4-chloro-3-{[((2R)-tetrahydro-furan-2-ylmethyl)-amino]-methyl}-phenylethynyl)-phenyl]-1-[3-((3S)-3-methyl-morpholin-4-yl)-propyl]-1,4,6,7-tetrahydro-pyrazolo[4,3-c]pyridin-5-yl}-2-oxo-acetamide] | 20 |  |
| C[C@H]1COCCN1CCCn1nc(-c2ccc(Cl)c(C#Cc3ccc(Cl)c(CNC4CCCC4)c3)c2)c2c1CCN(C(=O)C(N)=O)C2 [Example 269, (S)-2-{3-[4-Chloro-3-(4-chloro-3-cyclopentylaminomethyl-phenylethynyl)-phenyl]-1-[3-(3-methyl-morpholin-4-yl)-propyl]-1,4,6,7-tetrahydro-pyrazolo[4,3-c]pyridin-5-yl}-2-oxo-acetamide] |  | 10 |
| CCCNCc1cc(C#Cc2cc(-c3nn(CCCN4CCOC[C@@H]4C)c4c3CN(C(=O)C(N)=O)CC4)ccc2Cl)ccc1Cl [Example 270, (S)-2-{3-[4-Chloro-3-(4-chloro-3-propylaminomethyl-phenylethynyl)-phenyl]-1-[3-(3-methyl-morpholin-4-yl)-propyl]-1,4,6,7-tetrahydro-pyrazolo[4,3-c]pyridin-5-yl}-2-oxo-acetamide] |  | 20 |
| C[C@H]1COCCN1CCCn1nc(-c2ccc(Cl)c(C#Cc3ccc(Cl)c(CNCCCO)c3)c2)c2c1CCN(C(=O)C(N)=O)C2 [Example 271, (S)-2-{3-(4-Chloro-3-{4-chloro-3-[(3-hydroxy-propylamino)-methyl]-phenylethynyl}-phenyl)-1-[3-(3-methyl-morpholin-4-yl)-propyl]-1,4,6,7-tetrahydro-pyrazolo[4,3-c]pyridin-5-yl}-2-oxo-acetamide] | 20 |  |
| C[C@H]1COCCN1CCCn1nc(-c2ccc(Cl)c(C#Cc3ccc(Cl)c(CN(CCO)CCO)c3)c2)c2c1CCN(C(=O)C(N)=O)C2 [Example 272, (S)-2-{3-[3-(3-{[Bis-(2-hydroxy-ethyl)-amino]-methyl}-4-chloro-phenylethynyl)-4-chloro-phenyl]-1-[3-(3-methyl-morpholin-4-yl)-propyl]-1,4,6,7-tetrahydro-pyrazolo[4,3-c]pyridin-5-yl}-2-oxo-acetamide] | 30 |  |
| CNCCCNC(=O)c1cc(C#Cc2cc(-c3nn(CCCN4CCOC[C@@H]4C)c4c3CN(C(=O)C(N)=O)CC4)ccc2Cl)ccc1Cl [Example 273, (S)-5-(5-{5-Aminooxalyl-1-[3-(3-methyl-morpholin-4-yl)-propyl]-4,5,6,7-tetrahydro-1H-pyrazolo[4,3-c]pyridin-3-yl}-2-chloro-phenylethynyl)-2-chloro-N-(3-methylamino-propyl)-benzamide] | 40 |  |
| C[C@H]1COCCN1CCCn1nc(-c2ccc(Cl)c(C#Cc3ccc(Cl)c(COCCCO)c3)c2)c2c1CCN(C(=O)C(N)=O)C2 [Example 274, (S)-2-{3-{4-Chloro-3-[4-chloro-3-(3-hydroxy-propoxymethyl)-phenylethynyl]-phenyl}-1-[3-(3-methyl-morpholin-4-yl)-propyl]-1,4,6,7-tetrahydro-pyrazolo[4,3-c]pyridin-5-yl}-2-oxo-acetamide] |  | 40 |
| C[C@H]1COCCN1CCCn1nc(-c2ccc(Cl)c(C#Cc3ccc(Cl)c(COC4CCNC4)c3)c2)c2c1CCN(C(=O)C(N)=O)C2 (stereo partly drawn) [Example 275, (S)-2-[3-[4-Chloro-3-[4-chloro-3-(pyrrolidin-3-yloxymethyl)-phenylethynyl]-phenyl}-1-[3-(3-methyl-morpholin-4-yl)-propyl]-1,4,6,7-tetrahydro-pyrazolo[4,3-c]pyridin-5-yl}-2-oxo-acetamide] | 50 |  |
| CS(=O)(=O)N1CCc2c(c(-c3ccc(Cl)c(C#Cc4ccc5c(c4)CN(C4CC4)CC5)c3)nn2CCCN2CCN(C3CC3)CC2)C1 [Example 276, 7-[(2-Chloro-5-{1-[3-(4-cyclopropylpiperazin-1-yl)propyl]-5-(methylsulfonyl)-4,5,6,7-tetrahydro-1H-pyrazolo[4,3-c]pyridin-3-yl}phenyl)ethynyl]-2-cyclopropyl-1,2,3,4-tetrahydroisoquinoline] |  | 180 |
| C[C@H]1COCCN1CCCn1nc(-c2ccc(Cl)c(C#Cc3ccc4c(c3)CN(C3CC3)CC4)c2)c2c1CCN(S(C)(=O)=O)C2 [Example 277, 7-({2-Chloro-5-[1-{3-[(3S)-3-methylmorpholin-4-yl]propyl}-5-(methylsulfonyl)-4,5,6,7-tetrahydro-1H-pyrazolo[4,3-c]pyridin-3-yl]phenyl}ethynyl)-2-cyclopropyl-1,2,3,4-tetrahydroisoquinoline] | 200 |  |
| C[C@H]1COCCN1CCCn1nc(-c2ccc(Cl)c(C#Cc3ccc4c(c3)CNCC4)c2)c2c1CCN(S(C)(=O)=O)C2 [Example 278, 7-({2-Chloro-5-[1-{3-[(3S)-3-methylmorpholin-4-yl]propyl}-5-(methylsulfonyl)-4,5,6,7-tetrahydro-1H-pyrazolo[4,3-c]pyridin-3-yl]phenyl}ethynyl)-1,2,3,4-tetrahydroisoquinoline] |  | 110 |
| CC(C)N1CCc2ccc(C#Cc3cc(-c4nn(CCCN5CCOC[C@@H]5C)c5c4CN(S(C)(=O)=O)CC5)ccc3Cl)cc2C1 [Example 279, 7-({2-Chloro-5-[1-{3-[(3S)-3-methylmorpholin-4-yl]propyl}-5-(methylsulfonyl)-4,5,6,7-tetrahydro-1H-pyrazolo[4,3-c]pyridin-3-yl]phenyl}ethynyl)-2-(1-methylethyl)-1,2,3,4-tetrahydroisoquinoline] | 110 |  |
| CS(=O)(=O)N1CCc2c(c(-c3ccc(Cl)c(C#Cc4ccc5c(c4)CN(C4CC4)CC5)c3)nn2CCCN2CCN(c3ccccc3)CC2)C1 [Example 280, 7-[(2-Chloro-5-{5-(methylsulfonyl)-1-[3-(4-phenylpiperazin-1-yl)propyl]-4,5,6,7-tetrahydro-1H-pyrazolo[4,3-c]pyridin-3-yl}phenyl)ethynyl]-2-cyclopropyl-1,2,3,4-tetrahydroisoquinoline] | 40 |  |
